In patent US20240067639A1, “SMALL MOLECULES THAT TARGET THE RNA THAT CAUSES ALS” (EXPANSION THERAPEUTICS, INC., priority 2020, published 2024):
Like-named read-outs stand apart in the source and are kept apart here.

Experiments:
[1] = molecular target: biotinylated r(G4C2)8 RNA and hnRNP H1-His6; test: TR-FRET hnRNP H binding assay
Experimental: TR-FRET hnRNP H Binding Assay. The TR-FRET assays were performed as previously described (Disney et al., 2012) except the final concentrations of biotinylated r(G4C2)8 (SEQ ID NO: 2) RNA and hnRNP H1-His6 were 80 nM and 75 nM, respectively. The RNA was folded by heating to 95° C. for 5 min in 1× Folding Buffer followed by slowly cooling to room temperature. The buffer was adjusted to 1×TR-FRET Assay Buffer followed by addition of compound. The mixture was incubated for 15 min at room temperature and then hnRNP H1-His6 was added. After an additional 15 min incubation, streptavidin-XL665 (HTRF, Cisbio Bioassays) and anti-His6-Tb (HTRF, Cisbio Bioassays) were added to a final concentration of 40 nM and 0.44 ng/μL, respectively. After incubating for 1 h, TR-FRET was measured as previously described. The IC50s were either calculated by fitting the equation (1) in Graphpad Prism.

[2] = tested on: RAN translation of (G4C2)66-No ATG-GFP in HEK293T cells; test: Cell-based assay of RAN translation inhibition (GFP/mCherry reporter); conditions: Homo sapiens, HEK-293T, 24 h, read-out: RANT IC25
[3] = Table D, HEK293T, 24 h treatment
[4] = Table F, HEK293T, 24 h treatment

SMILES | Ki ([1]; Table D) [µM] | Ki ([1]; Table F) [µM] | also measured
COc1ccc2c(c1)c1cc3cnccc3c(C)c1n2C [Compound 1, 9-methoxy-5,6-dimethyl-6H-pyrido[4,3-b]carbazole] | > 200 |  | IC25 [2, 3]: > 5 µM
Cc1c2ccncc2cc2c3cc(OCC4=NCCN4)ccc3n(C)c12 [Compound 3, 9-((4,5-dihydro-1H-imidazol-2-yl)methoxy)-5,6-dimethyl-6H-pyrido[4,3-b] carbazole] | 8.3 |  | IC25 [2, 3]: 0.1 µM
Cc1c2ccncc2cc2c3cc(OCC(=O)NCCN)ccc3n(C)c12 [Compound 4a, N-(2-aminoethyl)-2-((5,6-dimethyl-6H-pyrido[4,3-b]carbazol-9-yl)oxy)acetamide] | 4.5 |  | IC25 [2, 3]: 0.9 µM
Cc1c2ccncc2cc2c3cc(OCCN(C)C)ccc3n(C)c12 [Compound 5] | 20 |  | IC25 [2, 3]: 0.5 µM
Cc1c2ccncc2cc2c3cc(OCCCN(C)C)ccc3n(C)c12 [Compound 6, 3-((5,6-dimethyl-6H-pyrido[4,3-b]carbazol-9-yl)oxy)-N,N-dimethylpropan-1-amine] | 32 |  | IC25 [2, 3]: > 5 µM
Cc1c2ccncc2cc2c3cc(OCCCN4CCOCC4)ccc3n(C)c12 [Compound 8, 4-(3-((5,6-dimethyl-6H-pyrido[4,3-b]carbazol-9-yl)oxy)propyl)morpholine] | 11 |  | IC25 [2, 3]: 0.36 µM
Cc1c2ccncc2cc2c3cc(OCCCN4CCCC4)ccc3n(C)c12 [Compound 9, 5,6-dimethyl-9-(3-(pyrrolidin-1-yl)propoxy)-6H-pyrido[4,3-b]carbazole] | 10 |  | IC25 [2, 3]: 0.27 µM
CCN(CC)CCCOc1ccc2c(c1)c1cc3cnccc3c(C)c1n2C [Compound 10, 3-((5,6-dimethyl-6H-pyrido[4,3-b]carbazol-9-yl)oxy)-N,N-diethylpropan-1-amine] | 7.3 |  | IC25 [2, 3]: 3.2 µM
Cc1c2ccncc2cc2c3cc(OCCN4CCOCC4)ccc3n(C)c12 [Compound 11, 4-(2-((5,6-dimethyl-6H-pyrido[4,3-b]carbazol-9-yl)oxy)ethyl)morpholine] | 16 |  | IC25 [2, 3]: 0.4 µM
Cc1c2ccncc2cc2c3cc(OCC(N)=O)ccc3n(C)c12 [Compound 12, 2-((5,6-dimethyl-6H-pyrido[4,3-b]carbazol-9-yl)oxy)acetamide] | 18 |  | IC25 [2, 3]: 0.3 µM
Cc1c2ccncc2cc2c3cc(OCCCN4CCN(C)CC4)ccc3n(C)c12 [Compound 23, 5,6-dimethyl-9-(3-(4-methylpiperazin-1-yl)propoxy)-6H-pyrido[4,3-b]carbazole] | 9.4 |  | IC25 [2, 3]: > 5 µM
Cc1c2ccncc2cc2c3cc(C(=O)NCCN4CCCCC4)ccc3n(C)c12 [Compound 213, 5,6-dimethyl-N-(2-(piperidin-1-yl)ethyl)-6H-pyrido[4,3-b]carbazole-9-carboxamide] |  | 1.2 | IC25 [2, 4]: 1.7 µM
Cc1c2ccncc2cc2c3cc(C(=O)NCCO)ccc3n(C)c12 [Compound 214, N-(2-hydroxyethyl)-5,6-dimethyl-6H-pyrido[4,3-b]carbazole-9-carboxamide] |  | 3.6 | IC25 [2, 4]: 1 µM
COCCNC(=O)c1ccc2c(c1)c1cc3cnccc3c(C)c1n2C [Compound 215, N-(2-methoxyethyl)-5,6-dimethyl-6H-pyrido[4,3-b]carbazole-9-carboxamide] |  | 12 | IC25 [2, 4]: > 5 µM
Cc1c2ccncc2cc2c3cc(OCCN4CCCCCC4)ccc3n(C)c12 [Compound 219, 9-(2-(azepan-1-yl)ethoxy)-5,6-dimethyl-6H-pyrido[4,3-b]carbazole] |  | 1.2 | IC25 [2]: > 5 µM
Cc1c2ccncc2cc2c3cccc(OCCN(C)C)c3n(C)c12 [Compound 220, 2-((5,6-dimethyl-6H-pyrido[4,3-b]carbazol-7-yl)oxy)-N,N-dimethylethanamine] |  | 2.3 | IC25 [2]: > 5 µM
Cc1c2ccncc2cc2c1sc1ccc(OCCN(C)C)cc12 [Compound 224, N,N-dimethyl-2-((5-methylbenzo[4,5]thieno[2,3-g]isoquinolin-9-yl)oxy)ethanamine] |  | 8.6 | IC25 [2]: > 5 µM
Cc1c2ccncc2cc2c3cc(OCCN4CCC(C)CC4)ccc3n(C)c12 [Compound 227, 5,6-dimethyl-9-(2-(4-methylpiperidin-1-yl)ethoxy)-6H-pyrido[4,3-b]carbazole] |  | 1.4 | IC25 [2]: > 5 µM
Cc1c2ccncc2cc2c3cc(OCCN4CCC(F)CC4)ccc3n(C)c12 [Compound 229, 9-(2-(4-fluoropiperidin-1-yl)ethoxy)-5,6-dimethyl-6H-pyrido[4,3-b]carbazole] |  | 4.2 | IC25 [2]: 2.2 µM
Cc1c2ccncc2cc2c3ccc(OCCN4CCOCC4)cc3n(C)c12 [Example 53, 4-(2-((5,6-dimethyl-6H-pyrido[4,3-b]carbazol-8-yl)oxy)ethyl)morpholine] | > 200 |  | 

More lines, main results first:

Ki ([1]; Table D) [µM] | Ki ([1]; Table F) [µM] | SMILES | also measured
 | 6.9 | Cc1c2ccnc(C3CCCO3)c2cc2c3cc(C(=O)NCCN(C)C)ccc3n(C)c12 (stereo not drawn) [Compound 216, N-(2-(dimethylamino)ethyl)-5,6-dimethyl-1-(tetrahydrofuran-2-yl)-6H-pyrido[4,3-b]carbazole-9-carboxamide] | IC25 [2, 4]: 1.7 µM
 | 8.5 | Cc1c2ccncc2cc2c3cc(OCCN4CCS(=O)(=O)CC4)ccc3n(C)c12 [Compound 217, 4-(2-((5,6-dimethyl-6H-pyrido[4,3-b]carbazol-9-yl)oxy)ethyl)thiomorpholine 1,1-dioxide] | IC25 [2, 4]: > 5 µM
 | 0.8 | Cc1c2ccncc2cc2c3cc(OC[C@H](C)N)ccc3n(C)c12 [Compound 218, (S)-1-((5,6-dimethyl-6H-pyrido[4,3-b]carbazol-9-yl)oxy)propan-2-amine] | IC25 [2, 4]: 0.84 µM
 | 6.1 | Cc1c2ccnc(C(=O)N[C@H](C)CN(C)C)c2cc2c3ccc(OCCCN4CCN(C)CC4)cc3n(C)c12 [Compound 222, (R)—N-(1-(dimethylamino)propan-2-yl)-5,6-dimethyl-8-(3-(4-methylpiperazin-1-yl)-propoxy)-6H-pyrido[4,3-b]carbazole-1-carboxamide] | IC25 [2, 4]: > 5 µM
 | 3.1 | Cc1c2ccncc2cc2c3cc(OCCN4CCC(C)(C)CC4)ccc3n(C)c12 [Compound 223, 9-(2-(4,4-dimethylpiperidin-1-yl)ethoxy)-5,6-dimethyl-6H-pyrido[4,3-b]carbazole] | IC25 [2, 4]: 3.8 µM
27 |  | Cc1c2ccncc2cc2c3cc(OCC4=NCCN4)ccc3n(CCCN3CCN(C)CC3)c12 [Example 43, 9-((4,5-dihydro-1H-imidazol-2-yl)methoxy)-5-methyl-6-(3-(4-methylpiperazin-1-yl)propyl)-6H-pyrido[4,3-b]carbazole] | 
10 |  | Cc1c2ccncc2cc2c3cc(OCCCC(=N)N)ccc3n(C)c12 [Example 44a, 4-((5,6-dimethyl-6H-pyrido[4,3-b]carbazol-9-yl)oxy)butanimidamide] | 
> 200 |  | COC(=O)CCCOc1ccc2c(c1)c1cc3cnccc3c(C)c1n2C [Example 44b, methyl 4-((5,6-dimethyl-6H-pyrido[4,3-b]carbazol-9-yl)oxy)butanoate] | 
21 |  | Cc1c2ccncc2cc2c3cc(OCC(=N)N)ccc3n(C)c12 [Example 45, 2-((5,6-dimethyl-6H-pyrido[4,3-b]carbazol-9-yl)oxy)acetimidamide] | 
4.6 |  | Cn1c2ccc(OCCN3CCOCC3)cc2c2cc3cnccc3cc21 [Example 46, 4-[2-(6-methylpyrido[4,3-b]carbazol-9-yl)oxyethyl]morpholine] | 
> 200 |  | COc1ccc2[nH]c3c(c2c1)C(=O)c1cnccc1C3=O [Example 47, 9-methoxy-5H-pyrido[4,3-b]carbazole-5,11(6H)-dione] | 
> 200 |  | COc1ccc2[nH]c3c(C)c4ccncc4c(O)c3c2c1 [Example 48, 9-methoxy-5-methyl-6H-pyrido[4,3-b]carbazol-11-ol] | 
> 200 |  | COc1ccc2[nH]c3c(C)c4cnccc4cc3c2c1 [Example 49, 7-methoxy-11-methyl-10H-pyrido[3,4-b]carbazole] | 
1 |  | Cc1c2ccncc2cc2c3cc(OCC(=O)NCCCN(C)C)ccc3n(C)c12 [Example 58, 2-((5,6-dimethyl-6H-pyrido[4,3-b]carbazol-9-yl)oxy)-N-(3(dimethylamino)propyl)-acetamide] | 
1.3 |  | Cc1c2ccncc2cc2c3cc(OCC(=O)NCCN(C)C)ccc3n(C)c12 [Example 59, 2-((5,6-dimethyl-6H-pyrido[4,3-b]carbazol-9-yl)oxy)-N-(2-(dimethylamino)ethyl)-acetamide] | 
4.2 |  | COc1cccc2c1c1cc3c(C(=O)N[C@H](C)CN(C)C)nccc3c(C)c1n2C [Example 65, (R)—N-(1-(dimethylamino)propan-2-yl)-10-methoxy-5,6-dimethyl-6H-pyrido[4,3-b]carbazole-1-carboxamide] | 
> 200 |  | COc1ccc2oc3c(C)c4ccncc4cc3c2c1 [Example 66, 9-methoxy-5-methyl-benzofuro[2,3-g]isoquinoline] | 
> 200 |  | COc1ccc2sc3c(C)c4ccncc4cc3c2c1 [Example 67, 9-methoxy-5-methyl-benzothiopheno[2,3-g]isoquinoline] | 
> 200 |  | Cc1c2ccncc2cc2c1sc1ccc(OCCN3CCOCC3)cc12 [Example 81, 4-[2-(5-methylbenzothiopheno[2,3-g]isoquinolin-9-yl)oxyethyl]morpholine] | 
